From publication PMC7114351 (Antiviral Research, 2008)
Where “and” joins values, the source holds several entries; their conditions need not be identical. Equal entries are not always repeated. Entries after “also recorded” stand apart in the source; their conditions may differ. Where two headings read alike, the source gives them in different places.

Legend:
[1] = tested on: recombinant VACV expressing luciferase; experiment: microbe, parasite or virus in culture; format: cell-based, vaccinia virus; conditions: for IC50: Orthopoxvirus vaccinia, read-out: Luc IC50 ± SD
VACV (strain WR) = conditions: HFF cells, ref Quenelle et al., 2007; cited from earlier work
[2] = tested on: VACV late promoter p4b (Luc L); format: cell-based, vaccinia virus
VACV proteins = format: cell-based, vaccinia virus
VACV genomic DNA = format: cell-based, vaccinia virus
recombinant VACV = experiment: microbe, parasite or virus in culture; format: cell-based, vaccinia virus; conditions: for IC50 / IC90: Orthopoxvirus vaccinia; for IC50: read-out: Titer IC50 ± SD; for IC90: read-out: Titer IC90 ± SD
WT VACV = format: cell-based, vaccinia virus
Cytotoxicity, MTT assay [3] = format: cell-based; conditions: human, Jurkat cells
WT VACV (WR) = experiment: microbe, parasite or virus in culture; format: cell-based; conditions: Orthopoxvirus vaccinia; for IC50: read-out: Titer IC50 ± SD; for IC90: read-out: Titer IC90 ± SD
Cytotoxicity, MTT assay [4] = format: cell-based, African green monkey; conditions: African green monkey, BSC-40 cells
Cytotoxicity, MTT assay [5] = format: cell-based, mouse; conditions: mouse, L929 cells
Cytotoxicity, MTT assay [6] = format: cell-based, human; conditions: human, HeLa G cells
VACVs (strain WR) = conditions: two different VACVs (strain WR), ref Becker et al., 2008, cited from earlier work
[7] = tested on: luciferase expressed by Luc E/L or Luc L; format: cell-based, vaccinia virus
[8] = tested on: VACV early/late promoter p7.5 (Luc E/L); format: cell-based, vaccinia virus
BSC-40 cells = experiment: Cytotoxicity, MTT assay; format: cell-based, African green monkey
VACV = format: cell-based, vaccinia virus
[9] = tested on: cell lines of the antiviral assays; experiment: Cytotoxicity in conditions of the antiviral assays; conditions: up to 1 mM; higher cell density, 2% serum, 24 h incubation
L929 cells = experiment: Cytotoxicity, MTT assay; format: cell-based, mouse
HeLa G cells = experiment: Cytotoxicity, MTT assay; format: cell-based, human

O=C1O[C@H]([C@@H](O)CO)C(O)=C1O [L-ascorbic acid, L-Ascorbic acid]
luciferase activity, % of the mock-treated controls [1]: 120%

CCCCCCCCCCCCCCCCOCCCOP(=O)(O)CO[C@H](CO)Cn1ccc(N)nc1=O [CMX001]
IC50 (VACV (strain WR)): 0.13 µM

O[C@@H](CS)[C@@H](O)CS (racemic) [dithiothreitol]
luciferase activity, % of the mock-treated controls [1]: 140%

O=C(NN1C(=O)[C@@H]2[C@@H]3C=C[C@@H]([C@H]4C[C@@H]34)[C@@H]2C1=O)c1ccc(C(F)(F)F)cc1 [ST-246]
IC50 (VACV (strain WR)): 0.1 µM

OCCS [β-mercapthoethanol, β-mercaptoethanol]
luciferase activity, % of the mock-treated controls [1]: 150%

Nc1ccn([C@@H]2O[C@H](CO)[C@@H](O)[C@@H]2O)c(=O)n1 [AraC, cytosine arabinoside]
activity of luciferase expressed by Luc L, % of the mock-treated controls grown in the absence of AraC [2]: ≤ 0.05%

C=C(CC)C(=O)c1ccc(OCC(=O)O)c(Cl)c1Cl [Ethacrynic acid, ethacrynic acid]
VACV protein levels, western blot (VACV proteins): did not seem to decrease protein levels | levels of VACV genomic DNA (VACV genomic DNA): not changed | inhibition of VACV growth (recombinant VACV): 1 logs and 2 logs | IC50 (recombinant VACV; 24 h): 12.2 ± 0.3 µM | IC90 (recombinant VACV; 24 h): 40.9 ± 1.4 µM | IC50 (recombinant VACV; BSC-40, 24 h): 11.9 ± 0.5 µM | IC90 (recombinant VACV; BSC-40, 24 h): 30.9 ± 0.8 µM | IC50 (recombinant VACV; HeLa, 24 h): 1.6 ± 0.1 µM | IC90 (recombinant VACV; HeLa, 24 h): 5.4 ± 0.3 µM | IC50 (recombinant VACV; Jurkat, 24 h): 9.5 ± 2.4 µM | IC90 (recombinant VACV; Jurkat, 24 h): 30.9 ± 10 µM | IC50 (recombinant VACV; L929, 24 h): 19.8 ± 2.4 µM | IC90 (recombinant VACV; L929, 24 h): 80.2 ± 30.9 µM | IC50 ([1]; 24 h): 18.3 ± 3.7 µM | IC50 ([1]; BSC-40, 24 h): 35.3 ± 7 µM | IC50 ([1]; HeLa, 24 h): 2.6 ± 0.6 µM | IC50 ([1]; L929, 24 h): 26.5 ± 1.9 µM | number of plaques (WT VACV): reduced the number of plaques | CC50 at 2 days (Cytotoxicity, MTT assay [3]): 35 µM | IC50 (WT VACV (WR); 24 h): 9.5 ± 2.6 µM | IC90 (WT VACV (WR); 24 h): 47.8 ± 7.9 µM | IC50 (WT VACV (WR); BSC-40, 24 h): 9.2 ± 1 µM | IC90 (WT VACV (WR); BSC-40, 24 h): 29.4 ± 1 µM | IC90 (WT VACV (WR); HeLa, 24 h): 18.8 ± 0.6 µM | IC50 (WT VACV (WR); Jurkat, 24 h): 13.8 ± 4.7 µM | IC90 (WT VACV (WR); Jurkat, 24 h): 42.9 ± 13.4 µM | IC50 (WT VACV (WR); L929, 24 h): 19.3 ± 3.9 µM | IC90 (WT VACV (WR); L929, 24 h): 61.3 ± 16.3 µM | CC50 at 2 days (Cytotoxicity, MTT assay [4]): 292 µM | CC50 at 2 days (Cytotoxicity, MTT assay [5]): 224 µM | CC50 at 2 days (Cytotoxicity, MTT assay [6]): 128 µM

Nc1ccn(C[C@@H](CO)OCP(=O)(O)O)c(=O)n1 [cidofovir]
IC50 (VACVs (strain WR); BSC-40 cells): < 50 µM | IC50 (VACVs (strain WR); Vero cells): 54 µM and 62 µM | IC50 (VACV (strain WR)): 33 µM

O=C(O)CCCCC1CCSS1 (stereo not drawn) [Lipoic acid, α-lipoic acid]
VACV protein levels, western blot (VACV proteins): did not induce any major changes; also recorded: decreased the protein expression slightly | levels of VACV genomic DNA (VACV genomic DNA): not changed | IC50 (recombinant VACV; BSC-40, 24 h): 409 ± 8 µM | IC50 (recombinant VACV; HeLa, 24 h): 220 ± 14 µM | IC50 (recombinant VACV; Jurkat, 24 h): 354 ± 52 µM | IC50 (recombinant VACV; L929, 24 h): 245 ± 18 µM | protein levels of luciferase, western blot [7]: gradual decrease | effect on activity of Luc E/L [8]: dose-dependent inhibitory effect | effect on activity of luciferase expressed by Luc E/L (early gene expression) [8]: neither EA nor LA further decreased this measurable activity of luciferase | IC50 ([1]; 24 h): 305 ± 12 µM | IC50 ([1]; BSC-40, 24 h): 642 ± 4 µM | IC50 ([1]; HeLa, 24 h): 838 ± 159 µM | IC50 ([1]; L929, 24 h): 747 ± 199 µM | size of plaques (WT VACV): reduced the size of plaques | CC50 at 2 days (Cytotoxicity, MTT assay [3]): > 2000 µM | effect on activity of Luc L [2]: dose-dependent inhibitory effect | effect on activity of luciferase expressed by Luc L [2]: neither EA nor LA affected this result | IC50 (WT VACV (WR); 24 h): 587 ± 296 µM | IC50 (WT VACV (WR); BSC-40, 24 h): 712 ± 444 µM | IC50 (WT VACV (WR); HeLa, 24 h): 803 ± 273 µM | IC50 (WT VACV (WR); Jurkat, 24 h): 492 ± 92 µM | IC50 (WT VACV (WR); L929, 24 h): 702 ± 16 µM | CC50 (BSC-40 cells; MTT, 2 days of incubation): Growth promotion | inhibition of cell growth, MTT (BSC-40 cells; up to 2 mM): not found to inhibit growth | effect of pre-treatment on luciferase activity and virus titers (VACV entry) (VACV): not found to cause any differences | cytotoxicity in conditions of the antiviral assays [9]: neither EA nor LA induced any obvious cytotoxicity | CC50 (L929 cells; MTT, 2 days of incubation): Growth promotion | inhibition of cell growth, MTT (L929 cells; up to 2 mM): not found to inhibit growth | CC50 (HeLa G cells; MTT, 2 days of incubation): Growth promotion | inhibition of cell growth, MTT (HeLa G cells; up to 2 mM): not found to inhibit growth
